Data as given in ChEMBL document CHEMBL5441142, “Probing the Merck KGaA Open Global health library for novel starting points for anti-schistosomal drug discovery” (2024).
Active and inactive are the calls of the source. How the calls were made is not given here.

Tested on: Schistosoma mansoni
Assay: In vitro activity screen on S. mansoni schistosomula at 10 uM. Compound-induced effects were assessed by quantifying larva motility and phenotype using Roboworm.
Type: functional, organism-based
Set-up: test concentration 10 uM, temperature 37 degree C, time incubation 72 h
Settings: Puerto Rican

| SMILES | In vitro activity |
| --- | --- |
| CC1=C(C(=O)N2Cc3cc(C(F)(F)F)ccc3C3(CC3)C2)C2(CCN(C3CCOCC3)CC2)OC1=O | inactive |
| COc1ccc(CNc2nc(-c3ccc(C(=O)O)nc3)nc3sc4c(c23)CCCC4)cc1Cl | inactive |
| CC(C)(Sc1nc(-c2ccccc2)c(-c2ccccc2)s1)C(=O)O | inactive |
| COCc1cc(-c2nc(-c3cccc(CN(C)CCC(=O)O)c3)no2)ccc1N1CCCCC1C (stereo not drawn) | inactive |
| CC1=C(C(=O)N2CCc3ccc(C(F)(F)F)cc3C2)C2(CCN(C(C)(C)C)CC2)OC1=O | inactive |
| Cc1ccccc1-c1ccc(-c2nc(-c3ccc(CN(C)CCC(=O)O)cc3)no2)cc1C(F)(F)F | inactive |
| CCCCCCN(Cc1ccc(C#Cc2ccc(CCCC)cc2)cc1)c1ccc(F)c(C(=O)O)c1 | inactive |
| O=C(O)[C@H]1CC[C@H](c2nc(NCc3ccc4c(c3)OCO4)c3c(n2)sc2ccccc23)CC1 | inactive |
| COc1cc([S+](C)[O-])ccc1-c1nc2cnccc2[nH]1 (stereo not drawn) | inactive |
| CN(C)c1cccc2c(S(=O)(=O)Nc3ccc4nsnc4c3)cccc12 | inactive |
| Cc1cc(-c2cccs2)c(S(C)(=O)=O)cc1C(=O)N=C(N)N | inactive |
| O=C(O)Cc1ccc(-c2nc(NCc3ccc4c(c3)OCO4)c3c4c(sc3n2)CCCC4)cc1 | inactive |
| CCN1CCC2(CC1)OC(=O)C(C)=C2C(=O)N1CCc2ccc(C(F)(F)F)cc2C1 | inactive |
| Cc1cc(-n2cccc2)c(S(C)(=O)=O)cc1C(=O)N=C(N)N | inactive |
| CO[C@@H]1COCC[C@@H]1N1CCC2(CC1)OC(=O)C(C)=C2C(=O)N1CCc2ccc(C(F)(F)F)cc2C1 | inactive |
| O=C(O)CCC(=O)OCC1(c2ccc(Cl)cc2)OCC(c2ccccc2)(c2ccccc2)CO1 | inactive |
| Cn1c2ccccc2c2c(NCc3ccc4c(c3)OCO4)nc(-c3ccc(C(=O)O)cc3)nc21 | inactive |
| COc1cc(C(=O)Nc2nc(Nc3cccc(C(F)(F)F)c3)n(C)n2)ccc1-n1cnc(C)c1 | inactive |
| CC1=C(C(=O)N2CCc3ccc(C(F)(F)F)cc3C2)C2(CCN(C3CCOC(C)C3)CC2)OC1=O (stereo not drawn) | inactive |
| COCc1cc(-c2nc(-c3cccc(CN(C)CC(=O)O)c3)no2)ccc1-c1cccc(F)c1C | inactive |
| Cc1nc2c3c(nn2c(C)c1Cl)CN(C(=O)c1ccc(F)cc1OC1C[C@H]2COC[C@H](C1)N2C)C3 (stereo partly drawn) | inactive |

| SMILES | In vitro activity |
| --- | --- |
| CSc1cc(C)c(C(=O)N=C(N)N)cc1S(C)(=O)=O | inactive |
| CCNC1=N[C@@H]2[C@@H](O)[C@H](O)[C@@H](Cn3cc(COc4ccc(C)cc4)nn3)O[C@@H]2S1 | inactive |
| O=c1nc(Nc2cccc(Oc3ccncc3)c2)[nH]c2ccccc12 | inactive |
| O=C(O)c1ccc2[nH]cc(CCCCN3CC=C(c4ccccc4)CC3)c2c1 | inactive |
| CCc1cc(C(=O)NCc2ccc(OC)c(Cl)c2)c(NC(=O)c2ccc(C(=O)O)cc2)s1 | inactive |
| CCCCc1nc2ccn(Cc3ccccc3)c(=O)c2n1Cc1ccc(-c2ccccc2-c2nn[nH]n2)cc1 | inactive |
| CC1=C(C(=O)N2CCc3ccc(C(F)(F)F)cc3C2)C2(CCN(C(C)C)CC2)OC1=O | inactive |
| CC1=C(C(=O)N2CCc3ccc(C(F)(F)F)cc3C2)C2(CCN(CC3CCOC3)CC2)OC1=O (stereo not drawn) | inactive |
| Oc1ccc2[nH]cc(CCCCN3CC=C(c4ccccc4)CC3)c2c1 | inactive |
| Cc1c(C(=O)N=C(N)N)cc(-n2cccc2)c(C)c1C | inactive |
| CCN(CCC(=O)O)Cc1cccc(-c2noc(-c3ccc(-c4ccccc4F)c(COC)c3)n2)c1 | inactive |
| O=C(CCN1CCCCC1)c1ccc2[nH]c(=O)sc2c1 | inactive |
| CCSc1cc(C)c(C(=O)N=C(N)N)cc1S(C)(=O)=O | inactive |
| CC1=C(C(=O)N2CCN(c3cccc(C(F)(F)F)c3)CC2)C2(CCN(CCc3ccccc3)CC2)OC1=O | inactive |
| O=C(O)c1ccc(-c2nc(NCc3ccc4c(c3)OCO4)c3c4c(sc3n2)CCCC4)cc1 | inactive |
| COCc1cc(-c2nc(-c3ccc(CN(C)CC(=O)O)c(F)c3)no2)ccc1-c1ccccc1F | inactive |
| Cc1cc2c(cc1C(=O)N=C(N)N)S(=O)(=O)C(C)(C)CO2 | inactive |
| COCc1cc(-c2nc(-c3cccc(CN(C)CC(=O)O)c3)no2)ccc1-c1ccccc1C | inactive |
| CC1=C(C(=O)N2CCc3ccc(C(F)(F)F)cc3C2)C2(CCN(C3CCOC(C)(C)C3)CC2)OC1=O (stereo not drawn) | inactive |
| CCCCc1nc2ccn(Cc3ccccc3C(=O)OCC)c(=O)c2n1Cc1ccc(-c2ccccc2-c2nn[nH]n2)cc1 | inactive |
| Cc1ccccc1-c1ccc(-c2nc(-c3ccc(CN(C)CCC(=O)O)c(F)c3)no2)cc1C(F)(F)F | inactive |

| SMILES | In vitro activity |
| --- | --- |
| Cc1cc(Nc2ccccn2)c(S(C)(=O)=O)cc1C(=O)N=C(N)N | inactive |
| O=C(O)c1ccc(CCN2C(=O)CCN2CCC(O)Cc2cccc(Br)c2)cc1 (stereo not drawn) | inactive |
| O=C(O)c1ccc(-c2nc(NCc3cccnc3)c3c(n2)sc2ccccc23)cc1 | inactive |
| Cc1cc(C(C)C)c(S(C)(=O)=O)cc1C(=O)N=C(N)N | inactive |
| CCOC(=O)Nc1ccc(C(=O)N2CCCC(c3ccc(OC)c(OCC)c3)=N2)cc1 | inactive |
| COCc1cc(-c2nc(-c3cccc(CN(C)CC(=O)O)c3)no2)ccc1-c1ccccc1 | inactive |
| O=C(c1cc(-c2ccccn2)nc2ccc(Br)cc12)N1CCCC1 | inactive |
| COc1cc([S+]([O-])C(C)C)ccc1-c1nc2ccncc2[nH]1 (stereo not drawn) | inactive |
| Cc1cc(C(=O)C(C)SN2C(=O)c3ccccc3C2=O)ccc1O (stereo not drawn) | inactive |
| CCN(CCC(=O)O)Cc1cccc(-c2noc(-c3ccc(-c4ccccc4C)c(COC)c3)n2)c1 | inactive |
| CCCc1nn(C)c2c(NCc3ccc(OC)c(Cl)c3)nc(CCCCC(=O)NS(C)(=O)=O)nc12 | inactive |
| O=C(c1cc2c(s1)CC(C(=O)O)C2)c1ccccc1Cl (stereo not drawn) | inactive |
| O=C(O)Cc1ccc(-c2nc(NCc3ccc4c(c3)OCO4)c3c(n2)sc2ccccc23)cc1 | inactive |
| COc1ccc(CNc2nc(-c3ccc(CC(=O)O)cc3)nc3sc4c(c23)CCCC4)cc1Cl | inactive |
| COCc1cc(-c2nc(-c3cc(F)cc(CN(C)CC(=O)O)c3)no2)ccc1-c1ccccc1F | inactive |
| COc1ccc(CNc2nc(CCCCC(=O)O)nc3sc4c(c23)CCCC4)cc1Cl | inactive |
| CNC(=O)c1cc(Oc2ccc(NC(=O)Nc3cc(C(F)(F)F)ccc3-n3ccnc3)cc2)ccn1 | inactive |
| CC1=C(C(=O)N2CCN(c3cccc(C(F)(F)F)c3)CC2)C2(CCN(CCc3ccc(F)cc3)CC2)OC1=O | inactive |
| CCOc1cc(-c2nc(-c3ccc(CN(C)CC(=O)O)c(F)c3)no2)ccc1-c1ccccc1C | inactive |
| COc1cc([S+]([O-])Cc2ccccc2)ccc1-c1nc2ccncc2[nH]1 (stereo not drawn) | inactive |
| O=C(O)c1cn(Cc2ccc(-c3ccccc3)cc2)c2ccccc2c1=O | inactive |
